# Measurements from US20120295346A1, “METHODS AND COMPOSITIONS FOR MODULATING MEMBRANE POTENTIAL TO INFLUENCE CELL BEHAVIOR” (Tufts University, priority 2009, published 2012).
# Entries after “also recorded” stand apart in the source; their conditions may differ.
# How the values were obtained:
# [1] = system: Xenopus embryos; test: Ivermectin-induced hyper-pigmentation with blockers of voltage sensitive pathways; format: in vivo; conditions: for effect on ivermectin-induced hyper-pigmentation: with 10 μM ivermectin, 0.1 mM cadmium chloride, 0.1 mM verapamil, 50 mM lindane, 20 mM fluoxetine
# Method: We next sought to examine how changes in membrane voltage are translated into downstream signaling. In order to determine the signaling molecules responding to ivermectin induced depolarization, we examined three known voltage sensitive pathways: calcium, serotonin, and gap junctions. We capitalized on the existence of drugs known to block each of these pathways to determine if any were downstream of ivermectin signaling.
# Embryos were exposed to 10 μM ivermectin from stage 10 throughout development. […] The following methods were used in conducting the experiments detailed above.
# (§1) Stocks of ivermectin (sigma) were kept at 10 mM concentration in DMSO. Embryo exposure occurred at a 1:1000 dilution (10 μM) in MMR for the stages indicated in each experiment. […] Stocks of strychnine were kept at 1 g in 6 ml of water; embryos were treated with 100 μl of stock in 10 ml of MMR. Drugs and media were replaced every 48 hours.
# [2] = system: Xenopus embryos; test: Drug exposure of Xenopus embryos, hyper-pigmentation phenotype
# Text: Ivermectin is known to open vertebrate GlyCl channels, resulting in chloride flux through the membrane (Schonrock, B., and Bormann, J. (1993) Naunyn Schmiedebergs Arch Pharmacol 348, 628-632; Shan, Q., Haddrill, J. L., and Lynch, J. W. (2001) J Biol Chem 276, 12556-12564.).
# Xenopus embryos were collected according to standard protocols (Sive, Grainger et al. 2000) in 0.1× Modified Marc's Ringers (MMR) pH 7.8+0.1% Gentamycin. Xenopus embryos were staged according to Nieuwkoop and Faber 1967.
# as §1
# [3] = system: human melanocytes; test: Imaging membrane voltage using CC2-DMPE and DiBAC4(3); format: cell-based; conditions: high potassium media, CC2-DMPE and DiBAC4 dyes
# Method: CC2-DMPE (N-(6-chloro-7-hydroxycoumarin-3-carbonyl)-dimyristoylphosphatidyl ethanolamine), a coumarin phospholipid, and DiBAC4(3) (bis-(1,3-dibutylbarbituric acid) trimethine oxonol) were purchased from Invitrogen. Stock CC2-DMPE solution was prepared according to manufacturer directions; briefly, a 5 mM stock (in DMSO) was prepared, aliquoted, and stored at −20° C. until immediately before use. DiBAC4(3) stock (1.9 mM in DMSO) was prepared and stored at room temperature. CC2-DMPE stock was dissolved 1:1000 directly into DMEM. DiBAC4(3) stock was dissolved 1:2 in DMSO, then spun at rcf 20,800 for 10 minutes to remove undissolved particles of dye. Supernate was then diluted 1:4000 in DMEM. 1 mL of CC2-DMPE is added to cells grown in 35 mm FluoroDish Sterile Culture Dishes. Cells are incubated for 30 minutes, then washed twice with plain DMEM. 1-2 mLs of DiBAC4(3) are then added to the dish. Cells are incubated at least 30 minutes before imaging begins; cells are imaged while in the DiBAC4(3) bath. A round coverslip is dropped into the dish, and any medium outside the well is removed. […]
# An Olympus BX-61 equipped with a Hamamatsu ORCA AG CCD camera, and controlled by IPLabs, was used for imaging. […] No calibration was performed; nonetheless, pixel intensity within and among images can be compared for relative quantification. […]
# [4] = system: human epidermal melanocytes; test: Human melanocyte culture in high potassium media, proliferation and dendrite analysis; format: cell-based
# Text: After finding that Xenopus melanocytes responded to modulations in membrane potential, we examined human epidermal melanocytes to assess the impact of membrane depolarization on cell phenotype. For these studies, ivermectin could not be used to depolarize the membrane because the culture medium used to maintain the cells has a much higher chloride ion concentration then that observed intracellularly in these particular cells. Thus, membrane potential was modulated by raising the extracellular potassium concentration by addition of potassium gluconate to the media.
# Following two days of culture in 50 mM potassium gluconate supplemented media, human melanocytes developed a highly […] morphology, with a number of cells showing five or more such projections (compare FIGS. 6a and b). […] To verify that melanocytes grown in high potassium medium were in fact depolarized we made use of membrane voltage imaging using CC2-DMPE and DiBAC4 dyes, which allow visualization of the membrane potential (FIG. 6, d and e).
# Human melanocytes were obtained commercially and cultured in DermaLife M Melanocyte culture medium (Lifeline Cell Technology, Walkersville, Md.). Cells were maintained within standard 50 ml culture flasks (BD Bioscience, San Jose, Calif.), and were fed with 10 ml warm media every other day. Upon reaching confluence, melanocytes were passaged using a standard trypsonization protocol, and new colonies were seeded at approximately 5,000 cells per cm^2.
# For dendrite analysis, cells were imaged on a Nikon AZ100M stereo microscope and the numbers of dendrites on all cells within the field of vision were counted. Cell culture in high potassium media was repeated three times, and the results averaged for statistical analysis.
# [5] = system: melanocytes; test: Melanocyte counts in ivermectin-exposed Xenopus embryos; format: in vivo
# Method: We examined whether there is a critical period of ivermectin exposure required for hyperpigmentation. […] One set of animals was exposed to 10 μM ivermectin from stages 10-24 (gastrulation through the completion of neurulation), while the second set were exposed from stages 28-46 (tailbud through tadpole). Early exposed embryos were washed 3× in 0.5×MMR post exposure and transferred to a new dish to remove all drug from the environment.
# In order to evaluate the number of melanocytes between treatments, early vs. late exposed embryos were anesthetized in tricane, and then photographed. We then counted the number of melanocytes within the eye region (FIG. 2A, B), and compared each treatment to age-matched control siblings. […] In comparison, embryos exposed to ivermectin during gastrulation and neurogenesis, the time when a subset of neural crest cells become fated to differentiate along a melanocyte fate, show a 1.5 fold increase in melanocyte number compared to controls (FIG. 2C).
# Melanocytes were counted by cellAnalyst software (AssaySoft, Inc) on digital photographs of anesthetized larvae. Adobe Illustrator (Adobe Systems Inc) was used to define the dorsal region between the eyes used for counting. Tail regions were defined using digital photographs, starting at the most posterior tip of the tail and counting all melanocytes within a 400 pixel square bounding box extending anteriorly.
# [6] = system: Xenopus embryos; test: Ivermectin exposure in MMR with varying levels of chloride; format: in vivo; conditions: for % hyper-pigmented / Hyper-pigmented (number of embryos) / Normal pigmentation (number of embryos): 10 μM ivermectin from stage 10
# Method: We next sought to determine whether the alteration of melanocyte behavior was due to GlyCl-dependent changes in transmembrane potential. The intracellular concentration of chloride in an embryo is approximately 60 mM while the extracellular concentration of Modified Marc's Ringers (MMR), the solution in which the embryos are maintained, is 10 mM. If ivermectin constitutively opens chloride channels, ivermectin treatment would be expected to cause an efflux of Cl^− ions, thus resulting in depolarization of the cell membrane. Conversely, if the concentration of external chloride were raised above intracellular levels, chloride ions would enter cells following treatment with ivermectin, thus maintaining a hyperpolarized membrane potential. To test this hypothesis, we raised the concentration of chloride in the extracellular MMR media to 30 mM, 60 mM, or 90 mM and examined the resulting phenotype following ivermectin exposure.
# Embryos were exposed to the chloride activator ivermectin (10 μM) from stage 10 throughout development in MMR containing varying levels of chloride.
# as §1
# [7] = ivermectin from gastrulation throughout development
# [8] = 10 μM ivermectin from stage 10 throughout development, second drug concurrently
# [9] = older tadpoles (beyond stage 46) exposed to ivermectin
molecule,measurement,setting,value
[Cl][Cd][Cl] [cadmium chloride],effect on ivermectin-induced hyper-pigmentation,[1],did not result in any reduction; also recorded: did not inhibit hyper-pigmentation
CNCCC(Oc1ccc(C(F)(F)F)cc1)c1ccccc1 (stereo not shown) [fluoxetine],effect on ivermectin-induced hyper-pigmentation,[1],blocked ivermectin-induced hyper-pigmentation in all of the treated embryos; also recorded: completely inhibited
NCC(=O)O [glycine],hyper-pigmentation phenotype,"[2]; 3 mM glycine, exposure throughout development",induced the same hyperpigmented phenotype as ivermectin; also recorded: induces hyper-pigmentation at a similar level to ivermectin exposure
Cl[C@H]1[C@H](Cl)[C@@H](Cl)[C@@H](Cl)[C@H](Cl)[C@H]1Cl [lindane],effect on ivermectin-induced hyper-pigmentation,[1],did not result in any reduction
same,effect on ivermectin-induced hyper-pigmentation,[1]; listed as lindine,did not inhibit hyper-pigmentation
O=C([O-])[C@H](O)[C@@H](O)[C@H](O)[C@H](O)CO.[K+] [potassium gluconate],membrane potential of treated cells compared to controls,[3],depolarization
same,effect on growth in potassium dose response screen,[4]; 40 mM potassium gluconate,non-inhibitory to growth
same,"cell proliferation, standard vs high potassium media",[4]; 50 mM potassium gluconate supplemented media,No measurable differences in cell proliferation
same,dendricity / number of projections of melanocytes,"[4]; 50 mM potassium gluconate supplemented media, two days of culture",significant effect on the number of projections; also recorded: significant effect of potassium gluconate on dendricity
ivermectin,melanocyte morphology compared to wild type siblings,[2]; [7],take on a dendritic morphology
same,other disruptions of normal development,[2]; [7],not accompanied by any other observable disruptions of normal development
same,treated embryos/larvae developing hyper-pigmentation,[2]; [7],98%
same,incidence of hyper-pigmentation in words,[1]; 10 μM ivermectin alone,strong incidence of hyper-pigmentation
same,% hyper-pigmented,[1]; [8],95.3%
same,Hyper-pigmented tadpoles (number),[1]; [8],61
same,WT tadpoles (number),[1]; [8],3
same,increase in melanocyte number in eye field relative to controls,"[5]; 10 μM ivermectin, early exposure stages 10-24",1.5 fold
same,melanocyte number in eye field relative to controls,"[5]; 10 μM ivermectin, late exposure stages 28-46, at stage 46",do not show a significant increase; also recorded: no detectible difference
same,increase in melanocyte counts in the tip of the tail,[5]; ivermectin throughout development,1.5 fold
same,generation of more melanocytes,[5]; [9],do not appear to generate more melanocytes
same,time to expansion of pigment cells,[5]; [9],≤ 24 h
same,% hyper-pigmented,[6]; 10 mM Cl−,100%
same,Hyper-pigmented (number of embryos),[6]; 10 mM Cl−,25
same,Normal pigmentation (number of embryos),[6]; 10 mM Cl−,0
same,% hyper-pigmented,[6]; 30 mM Cl−,95.8%
same,Hyper-pigmented (number of embryos),[6]; 30 mM Cl−,23
same,Normal pigmentation (number of embryos),[6]; 30 mM Cl−,1
same,% hyper-pigmented,[6]; 60 mM Cl−,21.7%
same,Hyper-pigmented (number of embryos),[6]; 60 mM Cl−,5
same,Normal pigmentation (number of embryos),[6]; 60 mM Cl−,18
same,% hyper-pigmented,[6]; 90 mM Cl−,0%
same,Hyper-pigmented (number of embryos),[6]; 90 mM Cl−,0
same,Normal pigmentation (number of embryos),[6]; 90 mM Cl−,32
same,ivermectin hyper-pigmentation phenotype in words,[6]; extracellular chloride 10 mM,strong hyper-pigmentation
same,ivermectin hyper-pigmentation phenotype in words,[6]; extracellular chloride 30 mM,did not inhibit hyper-pigmentation; also recorded: strong hyper-pigmentation
same,ivermectin hyper-pigmentation phenotype in words,[6]; extracellular chloride 60 mM,suppressed; also recorded: partial inhibition
same,ivermectin hyper-pigmentation phenotype in words,[6]; extracellular chloride 90 mM,completely inhibited; also recorded: complete inhibition
